Earlier results on four compounds are cited in US20100047365A1, “WHEAT-GERM OIL CONCENTRATE, A METHOD FOR THE PRODUCTION THEREOF, A METHOD FOR PRODUCING WHEAT-GERM OIL, AND A MEDICINAL AND PROPHYLACTIC COMPOSITION BASED THEREON FOR RESTORATION OF DISORDERS IN SEXUAL FUNCTIONS” (OTKRYTOE AKTSIONERNOE, priority 2006, published 2010).

The conditions of the data set: relative ranking of tocopherol forms.
Regarding `Cc1cc(O)cc2c1O[C@](C)(CCC[C@H](C)CCC[C@H](C)CCCC(C)C)CC2` [δ-tocopherol], the antioxidant activity is 1.0.
With `Cc1c(C)c2c(c(C)c1O)CC[C@@](C)(CCC[C@H](C)CCC[C@H](C)CCCC(C)C)O2` [α-tocopherol], the antioxidant activity is 0.3.
Consider tocopherol, for which the antioxidant activity was 0.6.
With `Cc1cc(O)c(C)c2c1O[C@](C)(CCC[C@H](C)CCC[C@H](C)CCCC(C)C)CC2` [β-tocopherol], the antioxidant activity is 0.45.
